The record followed here is article PMC12169608, “Peptidomimetic Phenoxymethyl Ketone Warheads as Potent Dual-Mode Inhibitors against SARS-CoV‑2 M^pro and Cathepsin” (Journal of Medicinal Chemistry, 2025).

As a reminder, the EC50 is the concentration giving half of the maximal effect.

The target in the assay is SARS-CoV-2 main protease (Mpro) (Severe acute respiratory syndrome coronavirus 2, UniProt P0DTD1). The assay is described as follows: cell-based.
With `CCCCCCCCCCCCCCCC(=O)N[C@@H](Cc1cccc(F)c1)C(=O)N[C@@H](C[C@@H]1CCNC1=O)C(=O)COc1c(F)c(F)c(CO)c(F)c1F` [compound 4, N-((S)-3-(3-Fluorophenyl)-1-oxo-1-(((S)-3-oxo-1-((S)-2-oxopyrrolidin-3-yl)-4-(2,3,5,6-tetrafluoro-4-(hydroxymethyl)phenoxy)butan-2-yl)amino)propan-2-yl)palmitamide], the EC50 was greater than 50100 nM.
Turning to `COc1cccc2[nH]c(C(=O)N[C@@H](Cc3cccc(F)c3)C(=O)N[C@@H](C[C@@H]3CC(=O)NC3=O)C(=O)COc3c(F)c(F)c(C(C)(C)O)c(F)c3F)cc12` [compound 11], the concentration for a half-maximal effect (EC50) was 1230 nM.
The molecule `COc1cccc2[nH]c(C(=O)N[C@@H](Cc3cccc(F)c3)C(=O)N[C@@H](C[C@@H]3CCNC3=O)C(=O)COc3c(F)c(F)c(CO)c(F)c3F)cc12` [compound 1, N-((S)-3-(3-Fluorophenyl)-1-oxo-1-(((S)-3-oxo-1-((S)-2-oxopyrrolidin-3-yl)-4-(2,3,5,6-tetrafluoro-4-(hydroxymethyl)phenoxy)butan-2-yl)amino)propan-2-yl)-4-methoxy-1H-indole-2-carboxamide] had an EC50 of 105 nM.
On the same count and under the same terms, to `COc1cccc2[nH]c(C(=O)N[C@@H](Cc3cccc(F)c3)C(=O)N[C@@H](C[C@@H]3CCNC3=O)C(=O)COc3c(F)c(F)c(F)c(F)c3F)cc12` [compound 16, reference compound] belongs less than 3.02 nM; to `COc1cccc2[nH]c(C(=O)N[C@@H](Cc3cccc(F)c3)C(=O)N[C@@H](C[C@@H]3CCNC3=O)C(=O)COc3c(F)c(F)c(C(C)O)c(F)c3F)cc12` (stereo partly drawn) [compound 8, N-((2S)-3-(3-Fluorophenyl)-1-oxo-1-(((2S)-3-oxo-1-((S)-2-oxopyrrolidin-3-yl)-4-(2,3,5,6-tetrafluoro-4-(1-hydroxyethyl)phenoxy)butan-2-yl)amino)propan-2-yl)-4-methoxy-1H-indole-2-carboxamide], 8.71 nM; to `O=C(N[C@@H](Cc1c[nH]c2ccccc12)C(=O)N[C@@H](C[C@@H]1CCNC1=O)C(=O)COc1c(F)c(F)c(CO)c(F)c1F)c1cc2ccccc2[nH]1` [compound 5, N-((S)-3-(1H-Indol-3-yl)-1-oxo-1-(((S)-3-oxo-1-((S)-2-oxopyrrolidin-3-yl)-4-(2,3,5,6-tetrafluoro-4-(hydroxymethyl)phenoxy)butan-2-yl)amino)propan-2-yl)-1H-indole-2-carboxamide], 2880 nM.
In turn, `COc1cccc2[nH]c(C(=O)N[C@@H](Cc3cccc(F)c3)C(=O)N[C@@H](C[C@@H]3CCNC3=O)C(=O)COc3c(F)c(F)c(C(C)(C)O)c(F)c3F)cc12` [compound 10, N-((S)-3-(3-Fluorophenyl)-1-oxo-1-(((S)-3-oxo-1-((S)-2-oxopyrrolidin-3-yl)-4-(2,3,5,6-tetrafluoro-4-(2-hydroxypropan-2-yl)phenoxy)butan-2-yl)amino)propan-2-yl)-4-methoxy-1H-indole-2-carboxamide] showed an EC50 of 4.68 nM.
Consider “N-((S)-3-(3-Fluorophenyl)-1-oxo-1-(((S)-2-oxo-5-(5-oxo-1,5-dihydro-4H-1,2,4-triazol-4-yl)-1-(2,3,5,6-tetrafluoro-4-(2-hydroxypropan-2-yl)phenoxy)pentan-3-yl)amino)propan-2-yl)-4-methoxy-1H-indole-2-carboxamide [compound 12]”, for which the “M^pro reporter assay pEC50” value turned out to be 4.66.
Consider `COc1cccc2[nH]c(C(=O)N[C@H](Cc3cccc(F)c3)C(=O)N[C@@H](C[C@@H]3CCNC3=O)C(=O)COc3c(F)c(F)c(CO)c(F)c3F)cc12` [compound 2, N-((R)-3-(3-Fluorophenyl)-1-oxo-1-(((S)-3-oxo-1-((S)-2-oxopyrrolidin-3-yl)-4-(2,3,5,6-tetrafluoro-4-(hydroxymethyl)phenoxy)butan-2-yl)amino)propan-2-yl)-4-methoxy-1H-indole-2-carboxamide], for which it took 18600 nM to reach a half-maximal effect (EC50).
